This note sets out measurements from BindingDB's records for doi:10.1016/j.bmcl.2017.10.036 (Williams College, 2017).

The target in the assay is T1, Histidine kinase (Caulobacter vibrioides, UniProt Q9X688).
T1 sequence (Q9X688 whole entry): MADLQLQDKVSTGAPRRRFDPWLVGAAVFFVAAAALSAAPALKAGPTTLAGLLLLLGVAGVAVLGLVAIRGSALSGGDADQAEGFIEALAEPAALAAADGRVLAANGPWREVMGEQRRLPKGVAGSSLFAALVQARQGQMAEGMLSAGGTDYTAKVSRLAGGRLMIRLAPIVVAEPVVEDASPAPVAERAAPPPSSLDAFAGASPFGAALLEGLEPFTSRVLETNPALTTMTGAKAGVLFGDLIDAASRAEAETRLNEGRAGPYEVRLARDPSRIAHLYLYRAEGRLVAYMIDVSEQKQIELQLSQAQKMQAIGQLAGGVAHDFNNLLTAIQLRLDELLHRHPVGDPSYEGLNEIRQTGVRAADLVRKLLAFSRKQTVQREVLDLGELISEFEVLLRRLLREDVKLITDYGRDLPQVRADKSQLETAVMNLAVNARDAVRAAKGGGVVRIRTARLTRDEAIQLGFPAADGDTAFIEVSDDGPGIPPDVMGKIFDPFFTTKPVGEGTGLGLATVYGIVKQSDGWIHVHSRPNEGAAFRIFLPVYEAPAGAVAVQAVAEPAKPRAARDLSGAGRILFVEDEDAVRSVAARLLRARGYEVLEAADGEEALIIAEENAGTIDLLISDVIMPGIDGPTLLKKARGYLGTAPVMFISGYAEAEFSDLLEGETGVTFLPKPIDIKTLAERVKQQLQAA
The assay is described as follows: Inhibition of recombinant Caulobacter vibrioides cell cycle histidine kinase CckA deltaTM mutant DHp domain (70 to 691 residues) expressed in Escherichia coli in presence of varying levels of ATP measured every 60 secs for 2 hrs by PK/LDH enzyme coupled assay.

Take `COc1ccc(-c2c(-c3cc(Cl)c(O)cc3O)n[nH]c2C)cc1`: the IC50 (commonly the concentration that gives 50% inhibition) came out at 12.3 µM.

With `CCNC(=O)c1noc(-c2cc(C(C)C)c(O)cc2O)c1-c1ccc(CN2CCOCC2)cc1` [5-[2,4-dihydroxy-5-(propan-2-yl)phenyl]-N-ethyl-4-[4-(morpholin-4-ylmethyl)phenyl]-1,2-oxazole-3-carboxamide], the IC50 was 7.3 µM.

With `Cc1[nH]nc(-c2cc(Cl)c(O)cc2O)c1-c1ccc2c(c1)OCCO2` [4-chloro-6-[4-(2,3-dihydro-1,4-benzodioxin-6-yl)-5-methyl-1H-pyrazol-3-yl]benzene-1,3-diol], the IC50 was found to be 11.2 µM.

As for `CCc1cc(-c2n[nH]c(C)c2-c2ccc3c(c2)OCCO3)c(O)cc1O`, the IC50 was determined as 28 µM.

On to `Oc1cc(O)c(-c2n[nH]cc2-c2ccc3c(c2)OCCO3)cc1Cl`, for which the IC50 amounted to 32.3 µM.
